This note sets out measurements from patent US6818646B2 (priority 2000, dated 2004).

Structures can show the parent of a compound that is named as a salt.

The first experiment deals with T1, PDEV (Homo sapiens, UniProt O76074).
T1 construct: PDEV was isolated from rabbit and human tissues according to the protocol described by Boolell et al; from tissue; host or cells: human tissue, homogenate supernatant fractionated on Mono Q
Nature of the experiment: PDE assay: inhibition of PDEV isolated from human tissue. The format is biochemical. The note with it: PDEV inhibitory activity. The protocol: (§1) Briefly, rabbit or human tissues were homogenized in an ice-cold buffer solution containing 20 mM HEPES (pH 7.2), 0.25M sucrose, 1 mM EDTA, and 1 mM phenylmethylsulphonyl fluoride (PMSF). The homogenates were centrifuged at 100,000 g for 60 minutes at 4° C. The supernatant was filtered through […] filter and loaded on a Pharmacia Mono Q anion exchange column (1 ml bed volume) that was equilibrated with 20 mM HEPES, 1 mM EDTA and 0.5 mM PMSF. After washing out unbound proteins, the enzymes were eluted with a linear gradient of 100-600 mM NaCl in the same buffer (35 to 50 ml total, depending on the tissue. Enzymes from the skeletal muscle, corpus cavernosum, retina, heart and platelet were eluted with 35, 40, 45, 50, and 50 ml respectively.) The column was run at a flow rate of 1 ml/min and 1 ml fractions were collected. The fractions comprising various PDE activities were pooled separately and used in later studies.
(§2) The assays were adapted to a 96-well format. The enzyme was assayed in 5 mM MgCl2, 15 mM Tris HCl (pH 7.4), 0.5 mg/ml bovine serum albumin, 1 μM cGMP or cAMP, 0.1 μCi [^3H]-cGMP or [^3H]-cAMP, and 2-10 μl of column elution. The total volume of the assay was 100 μl. The reaction mixture was incubated at 30° C. for 30 minutes. The reaction was stopped by boiling for 1 minute and then cooled down on ice. The resulting [^3H]5′-mononucleotides were further converted to uncharged [^3H]-nucleosides by adding 25 μl 1 mg/ml snake venom (Ophiophagus hannah) and incubating at 30° C. for 10 minute. The reaction was stopped by the addition of 1 ml Bio-Rad AG1-X2 resin slurry (1:3). All the charged nucleotides were bound by the resin and only uncharged [^3H]-nucleosides remained in the supernatant after centrifuging. An aliquot of 200 μl was taken and counted by liquid scintillation. PDE activity was expressed as pmol cyclic nucleotide hydrolyzed/min/ml of enzyme preparation.
(§3) Inhibitor studies were carried out in assay buffer with a final concentration of 10% DMSO.
(§4) The % inhibition of the maximum substrate conversion (by the enzyme in the absence of inhibitor) was calculated for each test compound concentration. Using GraphPad Prism's nonlinear regression analysis (sigmoidal dose response), the % inhibition vs log of the test compound concentration was plotted to determine the IC50. Under conditions where substrate concentration <<Km of the enzyme (Km=substrate concentration at which half of the maximal velocity of the enzyme is achieved), Ki is equivalent to the IC50 value.
(§5) Unless otherwise noted, PDEV inhibitory activities were measured using human tissue. The abbreviation “stereo” refers to the stereogenic configuration, the abbreviation “Rac” shall denote a racemic mixture.
In turn, `COc1ccc(-c2cnc(N3Cc4c([nH]c5ccccc5c4=O)C3c3ccc(OC)c(OC)c3)nc2)cc1OC` (centres unmarked) [Compound 15, 1,2,3,4-Tetrahydro-[5-(3,4-dimethoxyphenyl)-pyrimidin-2-yl]-3-(3,4-dimethoxyphenyl)-9H-pyrrolo[3,4-b]quinolin-9-one] returned an IC50 of 1160 nM.
Still for that read-out and setting: with `COc1ccc(-c2ccc(C(=O)N3Cc4c([nH]c5ccccc5c4=O)C3c3ccc4c(c3)OCO4)o2)cc1` (centres unmarked) [Compound 21, 1,2,3,4-Tetrahydro-3-(3,4-methylenedioxyphenyl)-2-[5-(4-methoxyphenyl)-furoyl]-9H-pyrrolo[3,4-b]-quinolin-9-one] the figure was 1.93 nM; with `O=Cc1ccc(-c2ccc(C(=O)N3Cc4c([nH]c5ccccc5c4=O)C3c3ccc4c(c3)OCO4)o2)cc1` (centres unmarked) [Compound 23, 1,2,3,4-Tetrahydro-3-(3,4-methylenedioxyphenyl)-2-[5-(4-formylphenyl)-furoyl]-9H-pyrrolo[3,4-b]-quinolin-9-one], 1.76 nM; with `COC(=O)c1ccc(-c2ccc(C(=O)N3Cc4c([nH]c5ccccc5c4=O)C3c3ccc4c(c3)OCO4)o2)cc1` (centres unmarked) [Compound 24, 1,2,3,4-Tetrahydro-3-(3,4-methylenedioxyphenyl)-2-[5-(4-methoxycarbonylphenyl)-furoyl]-9H-pyrrolo[3.4-b]-quinolin-9-one], 1.21 nM.
On the same count and under the same terms, under `COc1ccc(-c2cnc(N3Cc4c([nH]c5ccccc5c4=O)C3c3ccc4c(c3)CCO4)nc2)cc1` (centres unmarked) [Compound 39, 1,2,3,4-Tetrahydro-2-[5-(4-methoxyphenyl)-pyrimidin-2-yl]-3-(2,3-dihydrobenzofuranyl)-9H-pyrrolo-[3,4-b]quinolin-9-one] stands 0.47 nM.
The compound `CN1CCN(C(=O)c2ccc(-c3ccc(C(=O)N4Cc5c([nH]c6ccccc6c5=O)C4c4ccc5c(c4)OCO5)o3)cc2)CC1` (centres unmarked) [Compound 44, 1,2,3,4-Tetrahydro-3-(3,4-methylenedioxyphenyl)-2-(5-(4-(1-(4-methyl)piperazinylcarbonyl)-phenyl)-furoyl)-9H-pyrrolo[3,4-b]quinolin-9-one] showed an IC50 of 1.58 nM.
Turning to `O=c1c2c([nH]c3ccccc13)C(c1ccc3c(c1)CCO3)N(c1ncc(-c3ccccn3)cn1)C2` (centres unmarked) [Compound 61], it took 1.03 nM to reach half-maximal inhibition (IC50).
In the case of `CN1CCN(C(=O)c2ccc(-c3ccc(C(=O)N4Cc5c([nH]c6ccccc6c5=O)[C@H]4c4ccc5c(c4)OCO5)o3)cc2)CC1` [Compound 69, (R)-1,2,3,4-Tetrahydro-3-(3,4-methylenedioxyphenyl)-2-(5-(4-(1-(4-methyl)-piperazinylcarbonyl)-phenyl)-furoyl)-9H-pyrrolo[3,4-b]quinolin-9-one], the IC50 stood at 0.32 nM.
Same read-out and setting: with `Oc1c2c(nc3ccccc13)[C@@H](c1ccc3c(c1)CCO3)N(c1ncc(-c3ccccn3)cn1)C2` [Compound 76] the figure was 0.23 nM.
Same read-out and setting: with `O=c1c2c([nH]c3ccccc13)[C@@H](c1ccc3c(c1)CCO3)N(Cc1ccccc1)C2` [Compound 77, (R)-1,2,3,4-Tetrahydro-2-benzyl-3-(2,3-dihydrobenzofuran-5-yl)-9H-pyrrolo-[3,4-b]quinolin-9-one] the figure was 62.7 nM.

For another experiment, the target named is PDEV (Oryctolagus cuniculus, UniProt G1SX67). The experiment can be described thus: PDE assay: inhibition of PDEV isolated from rabbit tissue. Type of experiment: biochemical. The conditions noted are these: PDEV inhibitory activity, rabbit tissue (footnote a). The method, then: as §1, §2, §3, §4, §5
`CC(C)(C)OC(=O)N1Cc2c([nH]c3ccccc3c2=O)C1c1ccc2c(c1)OCO2` (racemic) [Compound 3, 1,2,3,4-Tetrahydro-2-(tert-butoxycarbonyl)-3-(3,4-methylenedioxyphenyl)-9H-pyrrolo-[3,4-b]quinolin-9-one] came in with an IC50 of 340 nM.
Still for that read-out and setting: with `O=C(OCc1ccccc1)N1Cc2c(nc3ccccc3c2O)C1c1ccc2c(c1)OCO2` (racemic) [Compound 27, 1,2,3,4-Tetrahydro-2-(benzyloxycarbonyl)-3-(3,4-methylenedioxyphenyl)-9H-pyrrolo-[3,4-b]quinolin-9-one] the figure was 3.4 nM.
Still for that read-out and setting: with `O=C(c1ccc(Br)o1)N1Cc2c(nc3ccccc3c2O)C1c1ccc2c(c1)OCO2` (racemic) [Compound 30, 1,2,3,4-Tetrahydro-3-(3,4-methylenedioxyphenyl)-2-(5-(2-bromo)-furoyl)-9H-pyrrolo[3,4-b]quinolin-9-one] the figure was 5.2 nM; with `O=C(c1cc2ccc(OCCN3CCOCC3)cc2o1)N1Cc2c([nH]c3ccccc3c2=O)C1c1ccc2c(c1)OCO2` (racemic) [Compound 49, hydrochloride salt], 1.13 nM.
On the same count and under the same terms, with `O=C(OCc1ccncc1)N1Cc2c([nH]c3ccccc3c2=O)C1c1ccc2c(c1)CCO2` (racemic) [Compound 53, 1,2,3,4-Tetrahydro-2-[(4-pyridinyl)methyloxycarbonyl]-3-(2,3-dihydrobenzofuran-5-yl)-9H-pyrrolo-[3,4-b]quinolin-9-one] the figure was 5.34 nM; with `COC(=O)c1ccc(/C=C/C(=O)N2Cc3c(n(C)c4ccccc4c3=O)C2c2ccc3c(c2)OCO3)cc1` (racemic) [Compound 63, (E)-4-[3-Oxo-3-[1,2,3,4-tetrahydro-3-(3,4-methylenedioxyphenyl)-4-methyl-9H-pyrrolo-[3,4-b]quinolin-9-one-2-yl]-1-propenyl]benzoic acid, methyl ester], 511 nM; with `COc1ccc(-c2cnc(N3Cc4c([nH]c5ccccc5c4=O)[C@@H]3c3ccc4c(c3)OCO4)nc2)cc1OC` [Compound 35, (S)-1,2,3,4-Tetrahydro-2-[5-(3,4-dimethoxyphenyl)-pyrimidin-2-yl]-3-(3,4-methylenedioxyphenyl)-9H-pyrrolo-[3,4-b]quinolin-9-one], 1.42 nM.
`O=c1c2c([nH]c3ccccc13)[C@@H](c1ccc3c(c1)OCO3)N(c1ccc(-c3cccc(C(F)(F)F)c3)o1)C2` [Compound 50, (R)-1,2,3,4-Tetrahydro-3-(3,4-methylenedioxyphenyl)-2-[5-(3-trifluoromethylphenyl)furo-2-yl]-9H-pyrrolo-[3,4-b]quinolin-9-one] registered an IC50 of 0.61 nM.
The same measure, in the same setting: with “(E)-4-[3-Oxo-3-[1,2,3,4-tetrahydro-3-(3,4-methylenedioxyphenyl)-9-methoxy-9H-pyrrolo-[3,4-b]quinolin-2-yl]-1-propenyl]benzoic acid, methyl ester [Compound 64]” the figure was 113 nM.

In the next experiment the target is T1, PDEV. The experiment can be described thus: In vitro determination of Ki for phosphodiesterase inhibitors. The conditions noted are these: human tissue; given as 'Ki ='. Type of experiment: biochemical. The protocol:
The assays were adapted to a 96-well format. Phosphodiesterase was assayed in 5 mM MgCl2, 15 mM Tris HCl (pH 7.4), 0.5 mg/ml bovine serum albumin, 30 nM ^3H-cGMP and test compound at various concentrations. The amount of enzyme used for each reaction was such that less than 15% of the initial substrate was converted during the assay period. For all measurements, the test compound was dissolved and diluted in 100% DMSO (2% DMSO in assay). The total volume of the assay was 100 μl. The reaction mixture was incubated at 30° C. for 90 minutes. The reaction was stopped by boiling for 1 minute and then immediately cooled by transfer to an ice bath. To each well was then added 25 μl 1 mg/ml snake venom (Ophiophagus hannah) and the reaction mixture incubating at 30° C. for 10 minute. The reaction was stopped by the addition of 1 ml Bio-Rad AG1-X2 resin slurry (1:3). An aliquot of 200 μl was taken and counted by liquid scintillation.
as §4, §5
Consider `Oc1c2c(nc3ccccc13)C(c1ccc3occc3c1)N(c1ncc(-c3ccccn3)cn1)C2` (racemic) [Compound 126, 3-Benzofuran-5-yl-2-(5-pyridin-2-yl-pyrimidin-2-yl)-1,2,3,4-tetrahydro-pyrrolo[3,4-b]quinolin-9-one], for which the affinity, expressed as Ki, was 0.138 nM.
Still for that read-out and setting: under `Cc1ncc(-c2cnc(N3Cc4c(nc5ccccc5c4O)C3c3ccc4c(c3)CCO4)nc2)n1Cc1ccccc1` (racemic) [Compound 127, 2-[5-(3-Benzyl-2-methyl-3H-imidazol-4-yl)-pyrimidin-2-yl]-3-(2,3-dihydro-benzofuran-5-yl)-1,2,3,4-tetrahydro-pyrrolo[3,4-b]quinolin-9-one] stands 0.14 nM; under `O=c1c2c([nH]c3ccccc13)C(c1ccc3c(c1)CCO3)N(c1ccccn1)C2` (racemic) [Compound 129, 3-(2,3-Dihydro-benzofuran-5-yl)-2-pyridin-2-yl-1,2,3,4-tetrahydro-pyrrolo[3,4-b]quinolin-9-one], 0.65 nM; under `Oc1c2c(nc3ccccc13)C(c1ccc3c(c1)OCO3)N(c1ccc(-n3ccnc3)cc1)C2` (racemic) [Compound 133, 3-Benzo[1,3]dioxol-5-yl-2-(4-imidazol-1-yl-phenyl)-1,2,3,4-tetrahydro-pyrrolo[3,4-b]quinolin-9-one], 1.75 nM.

What is called IC50 is the concentration needed to halve the response being measured. As a reminder, the Ki is a dissociation constant, usually derived from enzyme kinetics or from competition with a known ligand.
